Assay results: patent publication US6395755B1, “Benzothiophene pharmaceutical compounds” (Eli Lilly and Company, priority 1995, dated 2002)
Read-outs that look alike come from different tables or passages of the source.

Experiments:
[1] = test system: uterus of ovariectomized (OVX) rats; design: species or system Sprague Dawley rats; settings: rat, in vivo, po, 0.1 mg/kg/day
Experimental: (§1) In the examples illustrating the methods, a post-menopausal model was used in which effects of different treatments upon circulating lipids were determined.
(§2) Seventy-five day old female Sprague Dawley rats (weight range of 200 to 225 g) are obtained from Charles River Laboratories (Portage, Mich.). The animals are either bilaterally ovariectomized (OVX) or exposed to a Sham surgical procedure at Charles River Laboratories, and then shipped after one week. Upon arrival, they are housed in metal hanging cages in groups of 3 or 4 per cage and have ad libitum access to food (calcium content approximately 0.5%) and water for one week. Room temperature is maintained at 22.2° ±1.7° C. with a minimum relative humidity of 40%. The photoperiod in the room is 12 hours light and 12 hours dark.
Dosing Regimen Tissue Collection. After a one week acclimation period (therefore, two weeks post-OVX) daily dosing with test compound is initiated. 17α-ethynyl estradiol or the test compound is given orally, unless otherwise stated, as a suspension in 1% carboxymethylcellulose or dissolved in 20% cyclodextrin. Animals were dosed daily for 4 days. […] The animals are then sacrificed by asphyxiation with CO2, the uterus is removed through a midline incision, and a wet uterine weight is determined.

Serum cholesterol = Serum cholesterol in ovariectomized rats (post-menopausal model); format: in vivo, Sprague Dawley rats; settings: oral; for Serum Cholesterol (% decrease vs. OVX): daily for 4 days
Experimental: as §1, §2
(§3) Dosing Regimen Tissue Collection. After a one week acclimation period (therefore, two weeks post-OVX) daily dosing with test compound is initiated. 17α-ethynyl estradiol or the test compound is given orally, unless otherwise stated, as a suspension in 1% carboxymethylcellulose or dissolved in 20% cyclodextrin. Animals were dosed daily for 4 days. Following the dosing regimen, animals are weighed and anesthetized with a ketamine: Xylazine (2:1, V:V) mixture and a blood sample is collected by cardiac puncture. The animals are then sacrificed by asphyxiation with CO2, the uterus is removed through a midline incision, and a wet uterine weight is determined.
Cholesterol Analysis. Blood samples are allowed to clot at room temperature for 2 hours, and serum is obtained following centrifugation for 10 minutes at 3000 rpm. Serum cholesterol is determined using a Boehringer Mannheim Diagnostics high performance cholesterol assay. Briefly the cholesterol is oxidized to cholest-4-en-3-one and hydrogen peroxide. The hydrogen peroxide is then reacted with phenol and 4-aminophenazone in the presence of peroxidase to produce a p-quinone imine dye, which is read spectrophotemetrically at 500 nm. Cholesterol concentration is then calculated against a standard curve. The entire assay is automated using a Biomek Automated Workstation.

[2] = test system: Uterine Eosinophil Peroxidase (EPO); design: species or system Sprague Dawley rats; settings: rat, in vivo; for Uterine EPO (V. max): po
Text: as §2, §3
Uterine Eosinophil Peroxidase (EPO) Assay. Uteri are kept at 4° C. until time of enzymatic analysis. The uteri are then homogenized in 50 volumes of 50 mM Tris buffer (pH−8.0) containing 0.005% Triton X-100. Upon addition of 0.01% hydrogen peroxide and 10 mM O-phenylenediamine (final concentrations) in Tris buffer, increase in absorbance is monitored for one minute at 450 nm. The presence of eosonophils in the uterus is an indication of estrogenic activity of a compound. The maximal velocity of a 15 second interval is determined over the initial, linear portion of the reaction curve.

[3] = test system: femur density of ovariectomized rats; experiment: Osteoporosis Test Procedure (35 day OVX rat, femur density); format: in vivo; settings: oral in 20% hydroxypropyl β-cyclodextrin, daily for 35 days
Experimental: Following the General Preparation Procedure, infra, the rats are treated daily for 35 days (6 rats per treatment group) and sacrificed by carbon dioxide asphyxiation on the 36th day. The 35 day time period is sufficient to allow maximal reduction in bone density, measured as described herein. At the time of sacrifice, the uteri are removed, dissected free of extraneous tissue, and the fluid contents are expelled before determination of wet weight in order to confirm estrogen deficiency associated with complete ovariectomy. […] The uteri are then placed in 10% neutral buffered formalin to allow for subsequent histological analysis. The right femurs are excised and digitilized x-rays generated and analyzed by an image analysis program (NIH image) at the distal metaphysis. The proximal aspect of the tibiae from these animals are also scanned by quantitative computed tomography. In accordance with the above procedures, compounds of the present invention and ethynyl estradiol (EE2) in 20% hydroxypropyl β-cyclodextrin are orally administered to test animals.

Row | SMILES | Uterine EPO (V. max) ([2]; 0.1 mg/kg) | Uterine EPO (V. max) ([2]; 0.01 mg/kg) | Uterine EPO (V. max) ([2]; 1 mg/kg) | Uterine EPO (V. max) ([2]; 5 mg/kg) | Effect on uterine weight compared to ovariectomized animals (in words) [1] | Effect on serum cholesterol compared to ovariectomized controls (in words) (Serum cholesterol; OVX rats, EE2 at 0.1 mg/kg/day) | Serum Cholesterol (% decrease vs. OVX) (Serum cholesterol; dose 0.1 mg/kg) | Eosinophil infiltration into the uterus (stromal layer), in words [2] | Prevention of loss of femur density / bone loss after ovariectomy [3] | Serum Cholesterol (% decrease vs. OVX) (Serum cholesterol; dose 0.01 mg/kg) | Serum Cholesterol (% decrease vs. OVX) (Serum cholesterol; dose 1.0 mg/kg) | Serum Cholesterol (% decrease vs. OVX) (Serum cholesterol; dose 5.0 mg/kg)
1 | CC(c1ccc(OCCN2CCCCC2)cc1)c1c(-c2ccc(O)cc2)sc2cc(O)ccc12 (stereo not drawn) [Example 4] | 3.6 | 4.5 | 5.4 | 3.9 | – | – | 10.4% | – | – | −26.5% | 43.9% | 35.2%
2 | Oc1ccc(-c2sc3cc(O)ccc3c2C(O)(c2ccccc2)c2ccc(OCCN3CCCCC3)cc2)cc1 (stereo not drawn) [Example 8] | 3.6 | 4.2 | 4.5 | 35.1 | – | – | −3.1% | – | – | −9.0% | 14.0% | 56.9%
3 | O=C(c1ccc(OCCN2CCCCC2)cc1)c1c(-c2ccc(O)cc2)sc2cc(O)ccc12 [Raloxifene, reference compound] | 5.4 | 3.9 | 4.5 | – | – | – | 30.4% | – | – | 12.0% | 60.6% | –

Further lines, with some results ahead:

Row | Uterine EPO (V. max) ([2]; 0.1 mg/kg) | Uterine EPO (V. max) ([2]; 0.01 mg/kg) | Uterine EPO (V. max) ([2]; 1 mg/kg) | Uterine EPO (V. max) ([2]; 5 mg/kg) | SMILES | Effect on uterine weight compared to ovariectomized animals (in words) [1] | Effect on serum cholesterol compared to ovariectomized controls (in words) (Serum cholesterol; OVX rats, EE2 at 0.1 mg/kg/day) | Serum Cholesterol (% decrease vs. OVX) (Serum cholesterol; dose 0.1 mg/kg) | Eosinophil infiltration into the uterus (stromal layer), in words [2] | Prevention of loss of femur density / bone loss after ovariectomy [3] | Serum Cholesterol (% decrease vs. OVX) (Serum cholesterol; dose 0.01 mg/kg) | Serum Cholesterol (% decrease vs. OVX) (Serum cholesterol; dose 1.0 mg/kg) | Serum Cholesterol (% decrease vs. OVX) (Serum cholesterol; dose 5.0 mg/kg)
4 | 189.6 | – | – | – | C#C[C@]1(O)CC[C@H]2[C@@H]3CCc4cc(O)ccc4[C@H]3CC[C@@]21C [EE2, 17α-ethynyl estradiol, reference compound] | substantially greater than the uterine weight of ovariectomized test animals | caused a decrease in serum cholesterol | 84.8% | substantial, expected increase in eosinophil infiltration | prevented this loss | – | – | –
5 | 5.1 | 4.2 | 7.8 | 5.7 | CC(O)(c1ccc(OCCN2CCCCC2)cc1)c1c(-c2ccc(O)cc2)sc2cc(O)ccc12 (stereo not drawn) [Example 2] | – | – | 19.4% | – | – | −10.2% | 50.7% | 53.9%
